From US8933094B2, “Ethynyl compounds useful for treatment of CNS disorder” (Hoffmann-La Roche Inc., priority 2009, dated 2015)

Target: T1, human mGlu5a receptor (Homo sapiens, UniProt P41594)
T1 construct: expressed in transfected cells
Experiment: Intracellular Ca2+ mobilization assay (mGlu5 PAM)
Format: cell-based
Settings: for EC50: HEK-293 cells stably transfected with human mGlu5a, L-glutamate added at EC20 after 10-30 min pre-incubation with test compound, read-out: EC50 (nM) mGlu5PAM; for Emax: maximal response in % of the maximal stimulatory effect obtained with saturating concentrations of L-glutamate, read-out: Eff. (%)
Description: A monoclonal HEK-293 cell line stably transfected with a cDNA encoding for the human mGlu5a receptor was generated; for the work with mGlu5 Positive Allosteric Modulators (PAMs), a cell line with low receptor expression levels and low constitutive receptor activity was selected to allow the differentiation of agonistic versus PAM activity. Cells were cultured according to standard protocols (Freshney, 2000) in Dulbecco's Modified Eagle Medium with high glucose supplemented with 1 mM glutamine, 10% (vol/vol) heat-inactivated bovine calf serum, Penicillin/Streptomycin, 50 μg/ml hygromycin and 15 μg/ml blasticidin (all cell culture reagents and antibiotics from Invitrogen, Basel, Switzerland).
About 24 hrs before an experiment, 5×10^4 cells/well were seeded in poly-D-lysine coated, black/clear-bottomed 96-well plates. The cells were loaded with 2.5 μM Fluo-4AM in loading buffer (1×HBSS, 20 mM HEPES) for 1 hr at 37° C. and washed five times with loading buffer. The cells were transferred into a Functional Drug Screening System 7000 (Hamamatsu, Paris, France), and 11 half logarithmic serial dilutions of test compound at 37° C. were added and the cells were incubated for 10-30 min. with on-line recording of fluorescence. Following this pre-incubation step, the agonist L-glutamate was added to the cells at a concentration corresponding to EC20 (typically around 80 μM) with on-line recording of fluorescence; in order to account for day-to-day variations in the responsiveness of cells, the EC20 of glutamate was determined immediately ahead of each experiment by recording of a full dose-response curve of glutamate.
Responses were measured as peak increase in fluorescence minus basal (i.e. fluorescence without addition of L-glutamate), normalized to the maximal stimulatory effect obtained with saturating concentrations of L-glutamate. Graphs were plotted with the % maximal stimulatory using XLfit, a curve fitting program that iteratively plots the data using Levenburg Marquardt algorithm. The single site competition analysis equation used was y=A+((B−A)/(1+((x/C)D))), where y is the % maximal stimulatory effect, A is the minimum y, B is the maximum y, C is the EC50, x is the log 10 of the concentration of the competing compound and D is the slope of the curve (the Hill Coefficient). From these curves the EC50 (concentration at which half maximal stimulation was achieved), the Hill coefficient as well as the maximal response in % of the maximal stimulatory effect obtained with saturating concentrations of L-glutamate were calculated.
A depression of the signal observed after addition of the EC20 concentration of L-glutamate was indicative of an inhibitory activity of the test compound.

T1 sequence (P41594 21-1180 isoform P41594-2 limits assumed): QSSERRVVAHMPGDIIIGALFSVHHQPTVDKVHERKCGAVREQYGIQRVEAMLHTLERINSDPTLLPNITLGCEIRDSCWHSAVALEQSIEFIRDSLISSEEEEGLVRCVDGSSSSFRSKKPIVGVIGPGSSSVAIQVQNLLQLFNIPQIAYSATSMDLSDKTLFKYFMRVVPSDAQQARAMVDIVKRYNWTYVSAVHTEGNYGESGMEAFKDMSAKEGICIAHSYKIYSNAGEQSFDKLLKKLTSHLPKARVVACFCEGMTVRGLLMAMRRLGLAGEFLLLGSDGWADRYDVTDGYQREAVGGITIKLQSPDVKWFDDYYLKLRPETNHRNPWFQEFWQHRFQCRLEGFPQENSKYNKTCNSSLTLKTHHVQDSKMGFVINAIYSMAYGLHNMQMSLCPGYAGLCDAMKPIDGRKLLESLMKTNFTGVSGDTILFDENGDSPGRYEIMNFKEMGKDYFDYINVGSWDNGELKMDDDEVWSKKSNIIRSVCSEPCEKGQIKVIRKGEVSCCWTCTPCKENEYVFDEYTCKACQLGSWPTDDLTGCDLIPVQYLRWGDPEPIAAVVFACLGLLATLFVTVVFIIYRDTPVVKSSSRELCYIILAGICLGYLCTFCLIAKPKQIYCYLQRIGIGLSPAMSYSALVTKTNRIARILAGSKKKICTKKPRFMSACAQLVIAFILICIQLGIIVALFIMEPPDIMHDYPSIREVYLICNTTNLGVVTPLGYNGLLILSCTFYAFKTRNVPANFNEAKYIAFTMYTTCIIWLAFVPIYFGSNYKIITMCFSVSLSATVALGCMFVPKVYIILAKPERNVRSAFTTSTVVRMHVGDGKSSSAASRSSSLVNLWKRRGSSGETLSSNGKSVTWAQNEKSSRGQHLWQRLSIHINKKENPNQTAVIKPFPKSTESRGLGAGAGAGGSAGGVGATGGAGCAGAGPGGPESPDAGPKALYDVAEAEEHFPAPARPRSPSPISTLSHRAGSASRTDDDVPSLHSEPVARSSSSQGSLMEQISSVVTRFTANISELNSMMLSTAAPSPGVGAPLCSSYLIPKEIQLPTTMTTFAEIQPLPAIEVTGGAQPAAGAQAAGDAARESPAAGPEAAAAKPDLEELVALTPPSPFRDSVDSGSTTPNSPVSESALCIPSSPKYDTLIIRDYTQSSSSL

| Compound | EC50 [nM] | Emax [%] |
| --- | --- | --- |
| C(#Cc1cnc2ccnn2c1)c1ccccc1 [Example 1, 6-Phenylethynyl-pyrazolo[1,5-a]pyrimidine] | 70 | 116 |
| Cc1cc2ncc(C#Cc3ccccc3)cn2n1 [Example 2, 2-Methyl-6-phenylethynyl-pyrazolo[1,5-a]pyrimidine] | 49 | 99 |
| Cc1cc2ncc(C#Cc3ccccc3F)cn2n1 [Example 3, 6-(2-Fluoro-phenylethynyl)-2-methyl-pyrazolo[1,5-a]pyrimidine] | 47 | 81 |
| Cc1cc2ncc(C#Cc3cccc(F)c3)cn2n1 [Example 4, 6-(3-Fluoro-phenylethynyl)-2-methyl-pyrazolo[1,5-a]pyrimidine] | 42 | 77 |
| Cc1cc2ncc(C#Cc3ccc(F)cc3)cn2n1 [Example 5, 6-(4-Fluoro-phenylethynyl)-2-methyl-pyrazolo[1,5-a]pyrimidine] | 78 | 74 |
| Cc1cc2ncc(C#Cc3ccncc3)cn2n1 [Example 6, 2-Methyl-6-pyridin-4-ylethynyl-pyrazolo[1,5-a]pyrimidine] | 498 | 82 |
| Cc1ccc(C#Cc2cnc3cc(C)nn3c2)cc1 [Example 7, 2-Methyl-6-p-tolylethynyl-pyrazolo[1,5-a]pyrimidine] | 132 | 73 |
| Cc1cc2ncc(C#Cc3ccc(Cl)cc3)cn2n1 [Example 8, 6-(4-Chloro-phenylethynyl)-2-methyl-pyrazolo[1,5-a]pyrimidine] | 148 | 69 |
| CC(C)(C)c1cc2ncc(C#Cc3ccccc3)cn2n1 [Example 9, 2-tert-Butyl-6-phenylethynyl-pyrazolo[1,5-a]pyrimidine] | 5 | 75 |
| CC(C)(C)c1cc2ncc(C#Cc3ccccc3F)cn2n1 [Example 10, 2-tert-Butyl-6-(2-fluoro-phenylethynyl)-pyrazolo[1,5-a]pyrimidine] | 19 | 80 |
| CC(C)(C)c1cc2ncc(C#Cc3cccc(F)c3)cn2n1 [Example 11, 2-tert-Butyl-6-(3-fluoro-phenylethynyl)-pyrazolo[1,5-a]pyrimidine] | 5 | 86 |
| CC(C)(C)c1cc2ncc(C#Cc3ccc(F)cc3)cn2n1 [Example 12, 2-tert-Butyl-6-(4-fluoro-phenylethynyl)-pyrazolo[1,5-a]pyrimidine] | 7 | 75 |
| CC(C)(C)c1cc2ncc(C#Cc3cccnc3)cn2n1 [Example 13, 2-tert-Butyl-6-pyridin-3-ylethynyl-pyrazolo[1,5-a]pyrimidine] | 33 | 88 |
| CC(C)(C)c1cc2ncc(C#Cc3ccncc3)cn2n1 [Example 14, 2-tert-Butyl-6-pyridin-4-ylethynyl-pyrazolo[1,5-a]pyrimidine] | 4 | 37 |
| COc1ccc(C#Cc2cnc3cc(C(C)(C)C)nn3c2)cc1 [Example 15, 2-tert-Butyl-6-(4-methoxy-phenylethynyl)-pyrazolo[1,5-a]pyrimidine] | 68 | 53 |
| Cc1cccc(C#Cc2cnc3cc(C(C)(C)C)nn3c2)c1 [Example 16, 2-tert-Butyl-6-m-tolylethynyl-pyrazolo[1,5-a]pyrimidine] | 100 | 50 |
| COc1cccc(C#Cc2cnc3cc(C(C)(C)C)nn3c2)c1 [Example 17, 2-tert-Butyl-6-(3-methoxy-phenylethynyl)-pyrazolo[1,5-a]pyrimidine] | 104 | 41 |
| C(#Cc1cnc2cc(C3CCC3)nn2c1)c1ccccc1 [Example 18, 2-Cyclobutyl-6-phenylethynyl-pyrazolo[1,5-a]pyrimidine] | 182 | 102 |
| Cc1ccc(C#Cc2cnc3cc(C(C)(C)C)nn3c2)cc1 [Example 19, 2-tert-Butyl-6-p-tolylethynyl-pyrazolo[1,5-a]pyrimidine] | 100 | 68 |
| CC(C)(C)c1cc2ncc(C#Cc3ccc(Cl)cc3)cn2n1 [Example 20, 2-tert-Butyl-6-(4-chloro-phenylethynyl)-pyrazolo[1,5-a]pyrimidine] | 400 | 89 |

| Compound | EC50 [nM] | Emax [%] |
| --- | --- | --- |
| CC(C)(C)c1cc2ncc(C#Cc3ccc(Cl)nc3)cn2n1 [Example 21, 2-tert-Butyl-6-(6-chloro-pyridin-3-ylethynyl)-pyrazolo[1,5-a]pyrimidine] | 183 | 77 |
| CC(C)(C)c1cc2ncc(C#Cc3ccc(N)nc3)cn2n1 [Example 22, 5-(2-tert-Butyl-pyrazolo[1,5-a]pyrimidin-6-ylethynyl)-pyridin-2-ylamine] | 255 | 98 |
| CC(C)(C)c1cc2ncc(C#Cc3cncc(Cl)c3)cn2n1 [Example 23, 2-tert-Butyl-6-(5-chloro-pyridin-3-ylethynyl)-pyrazolo[1,5-a]pyrimidine] | 34 | 59 |
| CC(C)(C)c1cc2ncc(C#Cc3cncnc3)cn2n1 [Example 24, 2-tert-Butyl-6-pyrimidin-5-ylethynyl-pyrazolo[1,5-a]pyrimidine] | 181 | 68 |
| CC(C)(C)c1cc2ncc(C#Cc3ccc(F)c(F)c3)cn2n1 [Example 25, 2-tert-Butyl-6-(3,4-difluoro-phenylethynyl)-pyrazolo[1,5-a]pyrimidine] | 45 | 93 |
| C(#Cc1cnc2cc(C3CCOCC3)nn2c1)c1ccccc1 [Example 26, 6-Phenylethynyl-2-(tetrahydro-pyran-4-yl)-pyrazolo[1,5-a]pyrimidine] | 472 | 124 |
| CC(C)(C)c1cc2ncc(C#Cc3ccc(N)cc3)cn2n1 [Example 27, 4-(2-tert-Butyl-pyrazolo[1,5-a]pyrimidin-6-ylethynyl)-phenylamine] | 41 | 99 |
| CC(C)(O)c1cc2ncc(C#Cc3ccccc3)cn2n1 [Example 28, 2-(6-Phenylethynyl-pyrazolo[1,5-a]pyrimidin-2-yl)-propan-2-ol] | 152 | 59 |
| CC(C)(C)c1cc2ncc(C#Cc3cncc(F)c3)cn2n1 [Example 29, 2-tert-Butyl-6-(5-fluoro-pyridin-3-ylethynyl)-pyrazolo[1,5-a]pyrimidine] | 161 | 61 |
| N#Cc1cnn2cc(C#Cc3ccccc3)cnc12 [Example 30, 6-Phenylethynyl-pyrazolo[1,5-a]pyrimidine-3-carbonitrile] | 310 | 63 |
| C(#Cc1ccc2ncnn2c1)c1ccccc1 [Example 31, 6-Phenylethynyl-[1,2,4]triazolo[1,5-a]pyridine] | 274 | 123 |
| C(#Cc1cnc2ncnn2c1)c1ccccc1 [Example 32, 6-Phenylethynyl-[1,2,4]triazolo[1,5-a]pyrimidine] | 210 | 100 |
| C(#Cc1ccc2ccnn2c1)c1ccccc1 [Example 33, 6-Phenylethynyl-pyrazolo[1,5-a]pyridine] | 136 | 88 |
| C(#Cc1ccc2cnnn2c1)c1ccccc1 [Example 34, 6-Phenylethynyl-[1,2,3]triazolo[1,5-a]pyridine] | 50 | 77 |
| CC(C)(C)c1cc2ncc(C#Cc3cccc(N)c3)cn2n1 [Example 35, 3-(2-tert-Butyl-pyrazolo[1,5-a]pyrimidin-6-ylethynyl)-phenylamine] | 37 | 69 |
| CC(C)(C)c1cc2ncc(C#Cc3ccccc3N)cn2n1 [Example 36, 2-(2-tert-Butyl-pyrazolo[1,5-a]pyrimidin-6-ylethynyl)-phenylamine] | 155 | 88 |
| CC(C)(C)c1cc2ncc(C#Cc3cc(F)ccc3F)cn2n1 [Example 37, 2-tert-Butyl-6-(2,5-difluoro-phenylethynyl)-pyrazolo[1,5-a]pyrimidine] | 39 | 65 |
| CC(C)c1cc2ncc(C#Cc3ccccc3)cn2n1 [Example 38, 2-Isopropyl-6-phenylethynyl-pyrazolo[1,5-a]pyrimidine] | 18 | 53 |
| CC(C)(C)c1nc2ccc(C#Cc3ccccc3)cn2n1 [Example 39, 2-tert-Butyl-6-phenylethynyl-[1,2,4]triazolo[1,5-a]pyridine] | 30 | 54 |
| CC(C)(CO)c1nc2ccc(C#Cc3ccccc3)cn2n1 [Example 40, 2-Methyl-2-(6-phenylethynyl-[1,2,4]triazolo[1,5-a]pyridin-2-yl)-propan-1-ol] | 66 | 88 |
